According to patent US9708336B2, “Metallo-beta-lactamase inhibitors” (priority 2014, dated 2017):
Where two headings read alike, the source gives them in different places.

What was measured:
[1] = target: NDM-1 (Klebsiella pneumoniae, UniProt C7C422); test: biochemical; type: biochemical; conditions: fluorescence assay with CCF2-FA substrate; read-out: NDM-1 IC50
[2] = target: IMP-1 (Serratia marcescens, UniProt P52699); test: biochemical; type: biochemical; conditions: fluorescence assay with CCF2-FA substrate; read-out: IMP-1 IC50
Sequence of IMP-1 (P52699 whole entry, looked up): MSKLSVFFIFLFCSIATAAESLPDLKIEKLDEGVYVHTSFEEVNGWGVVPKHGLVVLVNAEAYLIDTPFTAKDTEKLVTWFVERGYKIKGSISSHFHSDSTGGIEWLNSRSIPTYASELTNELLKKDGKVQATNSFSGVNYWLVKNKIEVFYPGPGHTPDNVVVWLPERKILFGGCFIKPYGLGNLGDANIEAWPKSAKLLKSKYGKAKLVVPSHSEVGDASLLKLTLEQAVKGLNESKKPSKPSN

[3] = target: VIM-1 (Pseudomonas aeruginosa (strain ATCC 15692 / DSM 22644 / CIP 104116 / JCM 14847 / LMG 12228 / 1C / PRS 101 / PAO1), UniProt A0A0F7KYQ8); test: Enzyme activity: determination of IC50, fluorescence assay with CCF2-FA substrate (VIM-1); type: biochemical
[4] = system: Escherichia coli expressing NDM-1 (CLB30016); test: Antibiotic potentiation activity: synergistic concentration (MITC95) with imipenem, OD600 growth; type: cell-based; conditions: concentration giving 95% inhibition of bacterial growth
Outline: (§1)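 Test compound was combined with 4 μg/ml imipenem (or optionally 1 μg/ml), or with no antibiotic, against saline-suspended colonies diluted 1:100 in 1.1×CAMHB. Strains were E. coli NDM-1, S. marcescens IMP-1 and K. pneumoniae VIM-1. Plates were incubated 22–24 h at 35 °C before absorbance (OD600) readout.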

[5] = system: Klebsiella pneumoniae expressing VIM-1 (IHMA599644); test: as above; type: cell-based; conditions: concentration giving 95% inhibition of bacterial growth
Outline: as §1

[6] = system: Serratia marcescens expressing IMP-1 (CL5741); test: as above; type: cell-based; conditions: concentration giving 95% inhibition of bacterial growth
Outline: as §1

[7] = VIM-1 IC50, fluorescence assay with CCF2-FA substrate
[8] = fluorescence assay with CCF2-FA substrate, read-out: VIM-1 IC50

Sequence of NDM-1 (C7C422 whole entry, looked up, species assumed): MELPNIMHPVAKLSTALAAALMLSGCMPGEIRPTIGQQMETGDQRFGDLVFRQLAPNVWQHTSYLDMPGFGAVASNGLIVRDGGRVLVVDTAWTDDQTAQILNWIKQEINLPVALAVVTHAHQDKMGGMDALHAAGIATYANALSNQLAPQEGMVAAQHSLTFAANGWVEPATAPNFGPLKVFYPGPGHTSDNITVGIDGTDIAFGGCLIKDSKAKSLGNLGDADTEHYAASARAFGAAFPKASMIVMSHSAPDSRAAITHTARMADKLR

## NS(=O)(=O)c1cccc(CC2CCCCC2)c1-c1nnn[nH]1 [Example 153, 3-(cyclohexylmethyl)-2-(1H-tetrazol-5-yl)benzenesulfonamide]
[1]
  IC50: 8.25 nM
[2]
  IC50: 71.3 nM
[3]; [7]
  IC50: 252 nM
[4]
  Escherichia coli expressing NDM-1 (CLB 30016) MITC95: 4.688 µM
[5]
  Klebsiella pneumoniae expressing VIM-1 (IHMA 599644) MITC95: >200 µM
[6]
  Serratia marcescens expressing IMP-1 (CL5741) MITC95: 2.344 µM

## NS(=O)(=O)c1cccc(CCc2ccccc2)c1-c1nnn[nH]1 [Example 154, 3-phenethyl-2-(1H-tetrazol-5-yl)benzenesulfonamide]
[1]
  IC50: 3.28 nM
[2]
  IC50: 10.8 nM
[3]; [7]
  IC50: 80.8 nM
[4]
  Escherichia coli expressing NDM-1 (CLB 30016) MITC95: 2.344 µM
[5]
  Klebsiella pneumoniae expressing VIM-1 (IHMA 599644) MITC95: 100 µM
[6]
  Serratia marcescens expressing IMP-1 (CL5741) MITC95: 0.3906 µM

## Cc1ccccc1Cc1cccc(S(N)(=O)=O)c1-c1nnn[nH]1 [Example 155, 3-(2-methylbenzyl)-2-(1H-tetrazol-5-yl)benzenesulfonamide]
[1]
  IC50: 3 nM
[2]
  IC50: 92.7 nM
[3]; [8]
  IC50: 16.2 nM
[4]
  Escherichia coli expressing NDM-1 (CLB 30016) MITC95: 3.125 µM
[5]
  Klebsiella pneumoniae expressing VIM-1 (IHMA 599644) MITC95: 75 µM
[6]
  Serratia marcescens expressing IMP-1 (CL5741) MITC95: 2.344 µM

## CC(C)c1cccc(S(N)(=O)=O)c1-c1nnn[nH]1 [Example 156, 3-isopropyl-2-(1H-tetrazol-5-yl)benzenesulfonamide]
[1]
  IC50: 13.1 nM
[2]
  IC50: 508 nM
[3]; [8]
  IC50: 391 nM
[4]
  Escherichia coli expressing NDM-1 (CLB 30016) MITC95: 0.5859 µM
[5]
  Klebsiella pneumoniae expressing VIM-1 (IHMA 599644) MITC95: 50 µM
[6]
  Serratia marcescens expressing IMP-1 (CL5741) MITC95: 9.375 µM

## NS(=O)(=O)c1cccc(C2CC2)c1-c1nnn[nH]1 [Example 157, 3-cyclopropyl-2-(1H-tetrazol-5-yl)benzenesulfonamide]
[1]
  IC50: 28.7 nM
[2]
  IC50: 561 nM
[3]; [8]
  IC50: 1050 nM
[4]
  Escherichia coli expressing NDM-1 (CLB 30016) MITC95: 0.3906 µM
[5]
  Klebsiella pneumoniae expressing VIM-1 (IHMA 599644) MITC95: 50 µM
[6]
  Serratia marcescens expressing IMP-1 (CL5741) MITC95: 6.25 µM

## Cc1cccc(Cc2cccc(S(N)(=O)=O)c2-c2nnn[nH]2)c1 [Example 158, 3-(3-methylbenzyl)-2-(1H-tetrazol-5-yl)benzenesulfonamide]
[1]
  IC50: 16 nM
[2]
  IC50: 387 nM
[3]; [7]
  IC50: 352 nM
[4]
  Escherichia coli expressing NDM-1 (CLB 30016) MITC95: 3.125 µM
[5]
  Klebsiella pneumoniae expressing VIM-1 (IHMA 599644) MITC95: 200 µM
[6]
  Serratia marcescens expressing IMP-1 (CL5741) MITC95: 12.5 µM

## CC(C)(C)Cc1cccc(S(N)(=O)=O)c1-c1nnn[nH]1 [Example 159, 3-neopentyl-2-(1H-tetrazol-5-yl)benzenesulfonamide]
[1]
  IC50: 34 nM
[2]
  IC50: 526 nM
[3]; [8]
  IC50: 3390 nM
[4]
  Escherichia coli expressing NDM-1 (CLB 30016) MITC95: 3.125 µM
[5]
  Klebsiella pneumoniae expressing VIM-1 (IHMA 599644) MITC95: >200 µM
[6]
  Serratia marcescens expressing IMP-1 (CL5741) MITC95: 18.75 µM

## NS(=O)(=O)c1cccc(C2CCCC2)c1-c1nnn[nH]1 [Example 160, 3-cyclopentyl-2-(1H-tetrazol-5-yl)benzenesulfonamide]
[1]
  IC50: 9 nM
[2]
  IC50: 251 nM
[3]; [8]
  IC50: 280 nM
[4]
  Escherichia coli expressing NDM-1 (CLB 30016) MITC95: 0.7813 µM
[5]
  Klebsiella pneumoniae expressing VIM-1 (IHMA 599644) MITC95: 75 µM
[6]
  Serratia marcescens expressing IMP-1 (CL5741) MITC95: 9.375 µM

## CC(C)(C)c1cccc(S(N)(=O)=O)c1-c1nnn[nH]1 [Example 161, 3-(tert-butyl)-2-(1H-tetrazol-5-yl)benzenesulfonamide]
[1]
  IC50: 20.1 nM
[2]
  IC50: 306 nM
[3]; [7]
  IC50: 874 nM
[4]
  Escherichia coli expressing NDM-1 (CLB 30016) MITC95: 1.563 µM
[5]
  Klebsiella pneumoniae expressing VIM-1 (IHMA 599644) MITC95: 150 µM
[6]
  Serratia marcescens expressing IMP-1 (CL5741) MITC95: 6.25 µM

## NS(=O)(=O)c1cccc(Cc2ccccc2)c1-c1nnn[nH]1 [Example 162, 3-benzyl-2-(1H-tetrazol-5-yl)benzenesulfonamide]
[1]
  IC50: 18.9 nM
[2]
  IC50: 571 nM
[3]; [8]
  IC50: 691 nM
[4]
  Escherichia coli expressing NDM-1 (CLB 30016) MITC95: 1.563 µM
[5]
  Klebsiella pneumoniae expressing VIM-1 (IHMA 599644) MITC95: 200 µM
[6]
  Serratia marcescens expressing IMP-1 (CL5741) MITC95: 12.5 µM

## Cc1ccc(Cc2cccc(S(N)(=O)=O)c2-c2nnn[nH]2)cc1 [Example 163, 3-(4-methylbenzyl)-2-(1H-tetrazol-5-yl)benzenesulfonamide]
[1]
  IC50: 17.7 nM
[2]
  IC50: 327 nM
[3]; [8]
  IC50: 437 nM
[4]
  Escherichia coli expressing NDM-1 (CLB 30016) MITC95: 3.125 µM
[5]
  Klebsiella pneumoniae expressing VIM-1 (IHMA 599644) MITC95: >200 µM
[6]
  Serratia marcescens expressing IMP-1 (CL5741) MITC95: 12.5 µM

## NS(=O)(=O)c1cccc(CCC2CCCCC2)c1-c1nnn[nH]1 [Example 164, 3-(2-cyclohexylethyl)-2-(1H-tetrazol-5-yl)benzenesulfonamide]
[1]
  IC50: 2.93 nM
[2]
  IC50: 5.5 nM
[3]; [8]
  IC50: 50.6 nM
[4]
  Escherichia coli expressing NDM-1 (CLB 30016) MITC95: 1.563 µM
[5]
  Klebsiella pneumoniae expressing VIM-1 (IHMA 599644) MITC95: 200 µM
[6]
  Serratia marcescens expressing IMP-1 (CL5741) MITC95: 0.3906 µM

## NS(=O)(=O)c1cccc(-c2cnc3ccccc3c2)c1-c1nnn[nH]1 [Example 165, 3-(quinolin-3-yl)-2-(1H-tetrazol-5-yl)benzenesulfonamide]
[1]
  IC50: 1.24 nM
[2]
  IC50: 214 nM
[3]; [8]
  IC50: 11.6 nM
[4]
  Escherichia coli expressing NDM-1 (CLB 30016) MITC95: 0.5859 µM
[5]
  Klebsiella pneumoniae expressing VIM-1 (IHMA 599644) MITC95: 37.5 µM
[6]
  Serratia marcescens expressing IMP-1 (CL5741) MITC95: 9.375 µM

## N#Cc1ccccc1Cc1cccc(S(N)(=O)=O)c1-c1nnn[nH]1 [Example 166, 3-(2-cyanobenzyl)-2-(1H-tetrazol-5-yl)benzenesulfonamide]
[1]
  IC50: 6.89 nM
[2]
  IC50: 74.5 nM
[3]; [8]
  IC50: 18.8 nM
[4]
  Escherichia coli expressing NDM-1 (CLB 30016) MITC95: 2.344 µM
[5]
  Klebsiella pneumoniae expressing VIM-1 (IHMA 599644) MITC95: 100 µM
[6]
  Serratia marcescens expressing IMP-1 (CL5741) MITC95: 3.906 µM

## CC(C)Cc1cccc(S(N)(=O)=O)c1-c1nn[nH]n1 [Example 167, 3-isobutyl-2-(2H-tetrazol-5-yl)benzenesulfonamide]
[1]
  IC50: 12.4 nM
[2]
  IC50: 260 nM
[3]; [8]
  IC50: 1030 nM
[4]
  Escherichia coli expressing NDM-1 (CLB 30016) MITC95: 1.563 µM
[5]
  Klebsiella pneumoniae expressing VIM-1 (IHMA 599644) MITC95: 200 µM
[6]
  Serratia marcescens expressing IMP-1 (CL5741) MITC95: 9.375 µM

## NC1CCC(c2cccc(S(N)(=O)=O)c2-c2nn[nH]n2)CC1 (stereo not drawn) [Example 168, 3-(4-Aminocyclohexyl)-2-(2H-tetrazol-5-yl)benzenesulfonamide]
[1]
  IC50: 39.4 nM
[2]
  IC50: 865 nM
[3]; [8]
  IC50: 50.3 nM
[4]
  Escherichia coli expressing NDM-1 (CLB 30016) MITC95: 0.25 µM
[5]
  Klebsiella pneumoniae expressing VIM-1 (IHMA 599644) MITC95: 2.172 µM
[6]
  Serratia marcescens expressing IMP-1 (CL5741) MITC95: 6.25 µM

## NS(=O)(=O)c1cccc(C2CCC(N3CCNCC3)CC2)c1-c1nn[nH]n1 (stereo not drawn) [Example 170, 3-(4-(piperazin-1-yl)cyclohexyl)-2-(2H-tetrazol-5-yl)benzenesulfonamide]
[1]
  IC50: 21.9 nM
[2]
  IC50: 577 nM
[3]; [8]
  IC50: 3470 nM
[4]
  Escherichia coli expressing NDM-1 (CLB 30016) MITC95: 1.563 µM
[5]
  Klebsiella pneumoniae expressing VIM-1 (IHMA 599644) MITC95: 200 µM
[6]
  Serratia marcescens expressing IMP-1 (CL5741) MITC95: 9.375 µM

## NS(=O)(=O)c1cccc(C2CCC(O)CC2)c1-c1nn[nH]n1 (stereo not drawn) [Example 171, 3-(4-hydroxycyclohexyl)-2-(2H-tetrazol-5-yl)benzenesulfonamide]
[1]
  IC50: 8.56 nM
[2]
  IC50: 119 nM
[3]; [8]
  IC50: 128 nM
[4]
  Escherichia coli expressing NDM-1 (CLB 30016) MITC95: 2.344 µM
[5]
  Klebsiella pneumoniae expressing VIM-1 (IHMA 599644) MITC95: 25 µM
[6]
  Serratia marcescens expressing IMP-1 (CL5741) MITC95: 6.25 µM

## NS(=O)(=O)c1cccc(C2CCn3cncc3C2)c1-c1nn[nH]n1 (stereo not drawn) [Example 178, 3-(5,6,7,8-tetrahydroimidazo[1,5-a]pyridin-7-yl)-2-(2H-tetrazol-5-yl)benzenesulfonamide]
[1]
  IC50: 28.4 nM
[2]
  IC50: 1020 nM
[3]; [7]
  IC50: 65.5 nM
[4]
  Escherichia coli expressing NDM-1 (CLB 30016) MITC95: 0.25 µM
[5]
  Klebsiella pneumoniae expressing VIM-1 (IHMA 599644) MITC95: 9.375 µM
[6]
  Serratia marcescens expressing IMP-1 (CL5741) MITC95: 12.5 µM
